US10307413B2, “Tetrahydro- and dihydro-isoquinoline PRMT5 inhibitors and uses thereof” (Epizyme, Inc., priority 2013, dated 2019)
Read-outs that look alike come from different tables or passages of the source.

Tests used:
[1] = tested on: symmetric di-methyl arginine in Z-138 cells; assay: Z-138 Methylation Assay (In Cell Western for symmetric di-methyl arginine and DNA content); assay type: cell-based; conditions: Homo sapiens, In Cell Western methylation, read-out: ICW EC50
Summary of the method: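 In-cell western: symmetric di-methyl arginine signal ratioed to DRAQ5 DNA content after 96 h compound exposure of Z-138 cells seeded at 50,000 cells/mL.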

PRMT5/MEP50 = PRMT5/MEP50 (Homo sapiens (Human), UniProt O14744); assay: PRMT5 Biochemical Assay (PRMT5/MEP50 enzyme assay on peptide substrate, 3H-SAM Flashplate); conditions: PRMT5 biochemical assay
Summary of the method: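 Radiometric methylation of a biotin-tagged H4(1-15) peptide by human PRMT5/MEP50 from baculovirus/Sf9, with ³H-SAM incorporation read on streptavidin Flashplates. Buffer: Bicine pH 7.6, TCEP, BSG, Tween20; compound preincubated 30 min at 25 °C; stopped with 600 µM final unlabeled SAM. DMSO and SAH controls; IC50 from fitted % inhibition.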

Z-138 cell line = assay: Z-138 Proliferation Assay (Cell Titer Glo, 5 days); assay type: cell-based; conditions: Homo sapiens, read-out: Proliferation EC50
Summary of the method: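 Viability via CellTiter-Glo luminescence (ATP) after 5-day incubation at 37 °C, 5% CO2. Compounds tested in triplicate, nine 3-fold steps, highest final concentration 20 μM in 0.2% DMSO; 50% inhibitory concentration by 4-parameter fit of normalized curves.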

[2] = 120 h, Z-138 cells, 5 days, Cell Titer Glo

Chain of PRMT5/MEP50 (O14744 other isoform, or with tags, fused parts or gaps): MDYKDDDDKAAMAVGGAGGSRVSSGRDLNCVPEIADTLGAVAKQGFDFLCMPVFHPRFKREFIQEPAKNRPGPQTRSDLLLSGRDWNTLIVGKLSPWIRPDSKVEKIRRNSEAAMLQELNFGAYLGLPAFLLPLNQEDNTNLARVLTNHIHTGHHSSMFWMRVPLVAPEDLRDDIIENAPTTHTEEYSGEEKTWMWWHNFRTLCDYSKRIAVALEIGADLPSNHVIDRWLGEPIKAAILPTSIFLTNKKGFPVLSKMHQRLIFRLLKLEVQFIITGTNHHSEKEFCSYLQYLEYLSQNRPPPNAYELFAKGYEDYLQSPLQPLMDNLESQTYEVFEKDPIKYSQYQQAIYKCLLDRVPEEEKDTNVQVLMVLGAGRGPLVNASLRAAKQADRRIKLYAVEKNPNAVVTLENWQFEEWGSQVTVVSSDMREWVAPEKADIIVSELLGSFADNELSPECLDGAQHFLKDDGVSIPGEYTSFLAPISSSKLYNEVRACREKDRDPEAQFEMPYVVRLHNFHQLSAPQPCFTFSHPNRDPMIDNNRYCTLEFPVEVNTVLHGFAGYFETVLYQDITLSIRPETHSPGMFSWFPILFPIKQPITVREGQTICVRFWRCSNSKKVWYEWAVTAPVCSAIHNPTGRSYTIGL
Chain of PRMT5/MEP50 (Q9BQA1 other isoform, or with tags, fused parts or gaps partner): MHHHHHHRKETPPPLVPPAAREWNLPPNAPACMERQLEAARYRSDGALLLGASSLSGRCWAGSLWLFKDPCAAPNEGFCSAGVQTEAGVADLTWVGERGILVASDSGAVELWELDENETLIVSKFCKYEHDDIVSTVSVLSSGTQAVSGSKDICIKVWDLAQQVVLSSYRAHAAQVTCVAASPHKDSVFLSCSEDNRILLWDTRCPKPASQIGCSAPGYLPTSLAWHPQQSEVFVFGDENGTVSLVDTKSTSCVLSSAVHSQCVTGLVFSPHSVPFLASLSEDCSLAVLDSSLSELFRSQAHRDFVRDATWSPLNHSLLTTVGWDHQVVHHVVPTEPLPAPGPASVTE

Row | Structure (SMILES) | EC50 [1] [nM] | IC50 (PRMT5/MEP50) [nM] | EC50 (Z-138 cell line; [2]) [nM] | EC50 (Z-138 cell line; Z-138, 120 h) [nM]
1 | CC(=O)N1CCC(Nc2cc(C(=O)NC[C@H](O)CN3CCc4ccccc4C3)nc(N3CCOCC3)c2)CC1 [Compound 678] | < 100 | < 100 | 101 to 1000 | 
2 | CC(=O)N1CCC(Nc2cc(C(=O)NC[C@H](O)CN3CCc4ccccc4C3)nc(N3CCN(C(C)=O)CC3)c2)CC1 [Compound 679] | < 100 | < 100 | 101 to 1000 | 
3 | Cc1ccc2c(c1)CCN(C[C@@H](O)CNC(=O)c1cc(NC3COC3)ncn1)C2 [Compound 681] | 101 to 1000 | 101 to 1000 | > 5000 | 
4 | CC(=O)N1CCC(Nc2cc(C(=O)NC[C@H](O)CN3CCc4cc(C)ccc4C3)ccn2)CC1 [Compound 682] | < 100 | < 100 | 101 to 1000 | 
5 | Cc1cccc2c1CCN(C[C@@H](O)CNC(=O)c1cc(NC3COC3)ncn1)C2 [Compound 683] | 101 to 1000 | 101 to 1000 | > 5000 | 
6 | CC(=O)N1CCC(Nc2cc(C(=O)NC[C@H](O)CN3CCc4ccccc4C3)nc(N3CCN(C)CC3)c2)CC1 [Compound 684] | < 100 | < 100 | 101 to 1000 | 
7 | CC(=O)N1CCC(Nc2cc(C(=O)NC[C@H](O)CN3CCc4ccccc4C3)nc(N(C)C)c2)CC1 [Compound 685] | < 100 | < 100 | 101 to 1000 | 
8 | O=C(NC[C@H](O)CN1CCc2ccccc2C1)c1cnnc(NC2CCNC2)c1 (stereo partly drawn) [Compound 686] | > 1000 | < 100 | > 5000 | 
9 | CN1CCC(Nc2cc(C(=O)NC[C@H](O)CN3CCc4ccccc4C3)cnn2)C1 (stereo partly drawn) [Compound 689] | 101 to 1000 | < 100 | > 5000 | 
10 | COC(CNC(=O)c1cc(NC2CN(C(C)=O)C2)ncn1)CN1CCc2ccccc2C1 (stereo not drawn) [Compound 690] | 101 to 1000 | 101 to 1000 | > 5000 | 
11 | COC(CNC(=O)c1ccnc(NC2CCN(C(C)=O)CC2)c1)CN1CCc2ccccc2C1 (stereo not drawn) [Compound 691] | < 100 | < 100 | 1000 to 10000 | 
12 | CC(=O)N1CCC(Nc2cc(C(=O)NCC(O)C(C)N3CCc4ccccc4C3)ccn2)CC1 (stereo not drawn) [Compound 692] | 101 to 1000 | 101 to 1000 | > 5000 | 
13 | O=C(NC[C@H](O)CN1CCc2ccccc2C1)c1cnnc(NC2CCOCC2)c1 [Compound 693] | < 100 | < 100 | 101 to 1000 | 
14 | CC(=O)N1CCC(Nc2cc(C(=O)NC[C@H](O)CN3CCc4ccccc4C3C)ccn2)CC1 (stereo partly drawn) [Compound 694] | < 100 | < 100 | 101 to 1000 | 
15 | CC(=O)N1CCC(Nc2cc(C(=O)NCC(F)CN3CCc4ccccc4C3)ccn2)CC1 (stereo not drawn) [Compound 698] | < 100 | < 100 |  | 1000 to 10000
